Key:
Format in all cases: in vivo
[1] = tested on: southern crabgrass; assay: Foliage treatment test for upland field (Test Example 3): southern crabgrass; conditions: foliage treatment at 1.0-2.0 leaf stage of southern crabgrass, examined after 3 weeks
Description: (§1) Evaluation of the herbicidal effect is shown in the following six grades, by comparing the condition of untreated control and growth inhibition (%): • 0: 0%-less than 20% • 1: 20%-less than 40% • 2: 40%-less than 60% • 3: 60%-less than 80% • 4: 80%-less than 100% • 5: 100%.
(§2) Compost mixed soil was filled in 1/3,000 are pots, seeded with southern crabgrass, common lambsquaters, slender amaranth, common purslane, velvetleaf, wheat, corn and soybean. The seeds were covered up with the soil and cultured in a glasshouse kept at 25° C. on the average.
(§3) Wettable powders containing the object compounds (1) as identified in Table 1, which were formulated following Preparation Example 2, were diluted with water to the prescribed dose of the active ingredient, and uniformly sprayed onto the weeds at 1.0-2.0 leaf stage of the southern crabgrass at an application water of 15 liters per are.
(§4) After placing the test pots in a grasshouse kept at 25° C. on the average for 3 weeks, the herbicidal effect was examined.
(§5) Evaluation of the herbicidal effect was conducted in the similar manner to Test Example 1.

[2] = tested on: common lambsquaters; assay: Foliage treatment test for upland field (Test Example 3): common lambsquaters; conditions: foliage treatment at 1.0-2.0 leaf stage of southern crabgrass, examined after 3 weeks
Description: as §1, §2, §3, §4, §5

[3] = tested on: slender amaranth; assay: Foliage treatment test for upland field (Test Example 3): slender amaranth; conditions: foliage treatment at 1.0-2.0 leaf stage of southern crabgrass, examined after 3 weeks
Description: as §1, §2, §3, §4, §5

[4] = tested on: common purslane; assay: Foliage treatment test for upland field (Test Example 3): common purslane; conditions: foliage treatment at 1.0-2.0 leaf stage of southern crabgrass, examined after 3 weeks
Description: as §1, §2, §3, §4, §5

[5] = tested on: velvetleaf; assay: Foliage treatment test for upland field (Test Example 3): velvetleaf; conditions: foliage treatment at 1.0-2.0 leaf stage of southern crabgrass, examined after 3 weeks
Description: as §1, §2, §3, §4, §5

[6] = tested on: wheat; assay: Foliage treatment test for upland field (Test Example 3): phytotoxicity to wheat; conditions: foliage treatment at 1.0-2.0 leaf stage of southern crabgrass, examined after 3 weeks
Procedure: (§6) Evaluation of phytotoxicity is shown in the following six grades, as compared with the condition of untreated control: • 0: normal growth • 1: little damaged • 2: low damaged • 3: medium damaged • 4: serious damaged • 5: complete killed.
as §2, §4

[7] = tested on: corn; assay: Foliage treatment test for upland field (Test Example 3): phytotoxicity to corn; conditions: foliage treatment at 1.0-2.0 leaf stage of southern crabgrass, examined after 3 weeks
Procedure: as §6, §2, §4

[8] = tested on: soybean; assay: Foliage treatment test for upland field (Test Example 3): phytotoxicity to soybean; conditions: foliage treatment at 1.0-2.0 leaf stage of southern crabgrass, examined after 3 weeks
Procedure: as §6, §2, §4

[9] = tested on: southern crabgrass (Digitaria ciliaris); assay: Soil treatment test for upland field (Test Example 2): southern crabgrass; conditions: soil treatment before germination, examined after 3 weeks
Description: as §1
(§7) Upland field soil was filled in 1/3,000 are pots, seeded with southern crabgrass (Digitaria ciliaris), common lambsquaters (Chenopodium album), slender amaranth (Amaranthus viridis), common purslane (Portulaca oleracea), velvetleaf (Abutilon theophrasti), wheat, corn and soybean. The seeds were covered up with the soil.
(§8) Wettable powders containing the object compounds (1) as identified in Table 1, which were formulated following Preparation Example 2, were diluted with adequate amount of water to secure the prescribed dose of the active ingredient, and uniformly sprayed onto the surface soil layer after the seeding and before germination of the weeds, at an application water of 15 liters per are.
(§9) After placing the test pots in a glasshouse which was kept at an average temperature of 25° C. for 3 weeks, the herbicidal effect was examined.
(§10) Evaluations of the herbicidal effect and phytotoxicity were made in the manner similar to those in the above Test Example 1.

[10] = tested on: common lambsquaters (Chenopodium album); assay: Soil treatment test for upland field (Test Example 2): common lambsquaters; conditions: soil treatment before germination, examined after 3 weeks
Description: as §1, §7, §8, §9, §10

[11] = tested on: slender amaranth (Amaranthus viridis); assay: Soil treatment test for upland field (Test Example 2): slender amaranth; conditions: soil treatment before germination, examined after 3 weeks
Description: as §1, §7, §8, §9, §10

[12] = tested on: common purslane (Portulaca oleracea); assay: Soil treatment test for upland field (Test Example 2): common purslane; conditions: soil treatment before germination, examined after 3 weeks
Description: as §1, §7, §8, §9, §10

[13] = tested on: velvetleaf (Abutilon theophrasti); assay: Soil treatment test for upland field (Test Example 2): velvetleaf; conditions: soil treatment before germination, examined after 3 weeks
Description: as §1, §7, §8, §9, §10

[14] = tested on: wheat; assay: Soil treatment test for upland field (Test Example 2): phytotoxicity to wheat; conditions: soil treatment before germination, examined after 3 weeks
Description: as §6, §7, §9

[15] = tested on: corn; assay: Soil treatment test for upland field (Test Example 2): phytotoxicity to corn; conditions: soil treatment before germination, examined after 3 weeks
Description: as §6, §7, §9

[16] = tested on: soybean; assay: Soil treatment test for upland field (Test Example 2): phytotoxicity to soybean; conditions: soil treatment before germination, examined after 3 weeks
Description: as §6, §7, §9

Structure (SMILES) | Herbicidal Effect southern crabgrass ([1]; dose 2.5 g ai/a) | Herbicidal Effect southern crabgrass ([1]; dose 5 g ai/a) | Herbicidal Effect Common lambsquatters ([2]; dose 2.5 g ai/a) | Herbicidal Effect Common lambsquatters ([2]; dose 5 g ai/a) | Herbicidal Effect southern crabgrass ([9]; dose 2.5 g ai/a) | Herbicidal Effect southern crabgrass ([9]; dose 5 g ai/a) | Herbicidal Effect common lambsquaters ([10]; dose 2.5 g ai/a) | Herbicidal Effect common lambsquaters ([10]; dose 5 g ai/a) | Herbicidal Effect slender amaranth ([11]; dose 2.5 g ai/a) | Herbicidal Effect slender amaranth ([11]; dose 5 g ai/a) | Herbicidal Effect common purslane ([12]; dose 2.5 g ai/a) | Herbicidal Effect common purslane ([12]; dose 5 g ai/a) | Herbicidal Effect velvetleaf ([13]; dose 2.5 g ai/a) | Herbicidal Effect velvetleaf ([13]; dose 5 g ai/a) | Phytotoxicity wheat ([14]; dose 2.5 g ai/a) | Phytotoxicity wheat ([14]; dose 5 g ai/a) | Phytotoxicity corn ([15]; dose 2.5 g ai/a) | Phytotoxicity corn ([15]; dose 5 g ai/a) | Phytotoxicity soybean ([16]; dose 2.5 g ai/a) | Phytotoxicity soybean ([16]; dose 5 g ai/a) | other results
COCC(=Cc1cccc(C(F)(F)F)c1)c1nc2cc(C#N)c(F)cc2o1 [Compound 117] | 4 (80%-less than 100%) | 5 (100%) | 5 (100%) | 5 (100%) | – | – | – | – | – | – | – | – | – | – | – | – | – | – | – | – | Herbicidal Effect slender amaranth ([3]; dose 2.5 g ai/a): 5 (100%); Herbicidal Effect slender amaranth ([3]; dose 5 g ai/a): 5 (100%); Herbicidal Effect common purslane ([4]; dose 2.5 g ai/a): 5 (100%); Herbicidal Effect common purslane ([4]; dose 5 g ai/a): 5 (100%); Herbicidal Effect velvetleaf ([5]; dose 2.5 g ai/a): 4 (80%-less than 100%); Herbicidal Effect velvetleaf ([5]; dose 5 g ai/a): 5 (100%); Phytotoxicity wheat ([6]; dose 2.5 g ai/a): 0; Phytotoxicity wheat ([6]; dose 5 g ai/a): 0; Phytotoxicity corn ([7]; dose 2.5 g ai/a): 0; Phytotoxicity corn ([7]; dose 5 g ai/a): 1; Phytotoxicity soybean ([8]; dose 2.5 g ai/a): 0; Phytotoxicity soybean ([8]; dose 5 g ai/a): 1
CCOCC(=Cc1cccc(C(F)(F)F)c1)c1nc2cc(F)c(C(F)(F)F)cc2o1 [Compound 141] | – | – | – | – | 4 (80%-less than 100%) | 5 (100%) | 5 (100%) | 5 (100%) | 5 (100%) | 5 (100%) | 5 (100%) | 5 (100%) | 3 (60%-less than 80%) | 5 (100%) | 0 | 1 | 0 | 0 | 0 | 0 | –
CCSCC(=Cc1cccc(C(F)(F)F)c1)c1nc2cc(C(F)(F)F)ccc2o1 [Compound 84] | 4 (80%-less than 100%) | 4 (80%-less than 100%) | 4 (80%-less than 100%) | 5 (100%) | 3 (60%-less than 80%) | 3 (60%-less than 80%) | 5 (100%) | 5 (100%) | 4 (80%-less than 100%) | 5 (100%) | 5 (100%) | 5 (100%) | 2 (40%-less than 60%) | 2 (40%-less than 60%) | 0 | 0 | 0 | 0 | 0 | 0 | Herbicidal Effect slender amaranth ([3]; dose 2.5 g ai/a): 5 (100%); Herbicidal Effect slender amaranth ([3]; dose 5 g ai/a): 5 (100%); Herbicidal Effect common purslane ([4]; dose 2.5 g ai/a): 4 (80%-less than 100%); Herbicidal Effect common purslane ([4]; dose 5 g ai/a): 5 (100%); Herbicidal Effect velvetleaf ([5]; dose 2.5 g ai/a): 2 (40%-less than 60%); Herbicidal Effect velvetleaf ([5]; dose 5 g ai/a): 3 (60%-less than 80%); Phytotoxicity wheat ([6]; dose 2.5 g ai/a): 0; Phytotoxicity wheat ([6]; dose 5 g ai/a): 0; Phytotoxicity corn ([7]; dose 2.5 g ai/a): 0; Phytotoxicity corn ([7]; dose 5 g ai/a): 1; Phytotoxicity soybean ([8]; dose 2.5 g ai/a): 0; Phytotoxicity soybean ([8]; dose 5 g ai/a): 0
CSCC(=Cc1cccc(C(F)(F)F)c1)c1nc2cc(C(F)(F)F)ccc2o1 [Compound 82] | 4 (80%-less than 100%) | 4 (80%-less than 100%) | 5 (100%) | 5 (100%) | 3 (60%-less than 80%) | 3 (60%-less than 80%) | 5 (100%) | 5 (100%) | 5 (100%) | 5 (100%) | 5 (100%) | 5 (100%) | 2 (40%-less than 60%) | 2 (40%-less than 60%) | 0 | 0 | 0 | 0 | 0 | 0 | Herbicidal Effect slender amaranth ([3]; dose 2.5 g ai/a): 5 (100%); Herbicidal Effect slender amaranth ([3]; dose 5 g ai/a): 5 (100%); Herbicidal Effect common purslane ([4]; dose 2.5 g ai/a): 5 (100%); Herbicidal Effect common purslane ([4]; dose 5 g ai/a): 5 (100%); Herbicidal Effect velvetleaf ([5]; dose 2.5 g ai/a): 2 (40%-less than 60%); Herbicidal Effect velvetleaf ([5]; dose 5 g ai/a): 3 (60%-less than 80%); Phytotoxicity wheat ([6]; dose 2.5 g ai/a): 0; Phytotoxicity wheat ([6]; dose 5 g ai/a): 0; Phytotoxicity corn ([7]; dose 2.5 g ai/a): 0; Phytotoxicity corn ([7]; dose 5 g ai/a): 1; Phytotoxicity soybean ([8]; dose 2.5 g ai/a): 1; Phytotoxicity soybean ([8]; dose 5 g ai/a): 1
FC(F)C(F)(F)COCC(=Cc1cccc(C(F)(F)F)c1)c1nc2cc(C(F)(F)F)ccc2o1 [Compound 87] | 4 (80%-less than 100%) | 5 (100%) | 5 (100%) | 5 (100%) | 4 (80%-less than 100%) | 5 (100%) | 5 (100%) | 5 (100%) | 5 (100%) | 5 (100%) | 5 (100%) | 5 (100%) | 4 (80%-less than 100%) | 5 (100%) | 0 | 1 | 0 | 0 | 0 | 1 | Herbicidal Effect slender amaranth ([3]; dose 2.5 g ai/a): 5 (100%); Herbicidal Effect slender amaranth ([3]; dose 5 g ai/a): 5 (100%); Herbicidal Effect common purslane ([4]; dose 2.5 g ai/a): 5 (100%); Herbicidal Effect common purslane ([4]; dose 5 g ai/a): 5 (100%); Herbicidal Effect velvetleaf ([5]; dose 2.5 g ai/a): 4 (80%-less than 100%); Herbicidal Effect velvetleaf ([5]; dose 5 g ai/a): 5 (100%); Phytotoxicity wheat ([6]; dose 2.5 g ai/a): 0; Phytotoxicity wheat ([6]; dose 5 g ai/a): 1; Phytotoxicity corn ([7]; dose 2.5 g ai/a): 0; Phytotoxicity corn ([7]; dose 5 g ai/a): 1; Phytotoxicity soybean ([8]; dose 2.5 g ai/a): 1; Phytotoxicity soybean ([8]; dose 5 g ai/a): 1
CCOCC(=Cc1cccc(C(F)(F)F)c1)c1nc2cc(F)c(F)cc2o1 [Compound 127] | – | – | – | – | 4 (80%-less than 100%) | 5 (100%) | 5 (100%) | 5 (100%) | 5 (100%) | 5 (100%) | 5 (100%) | 5 (100%) | 3 (60%-less than 80%) | 5 (100%) | 0 | 0 | 0 | 0 | 0 | 0 | –

Source: patent US20080058213A1, “Benzoxazole Compounds” (priority 2004, published 2008)
